Source: patent publication US10508103B2, “Benzimidazole-linked indole compound acting as novel divalent IAP antagonist” (MEDSHINE DISCOVERY INC., priority 2016, dated 2019)

Assays:
[1] = system: NF-κB Luciferase Reporter Hela cells; assay: TNF-α inducing NF-κB reporter; type: cell-based; settings: Homo sapiens, 6 h, Bright-Glo luciferase
Description: Biological Assay 2: TNF-α inducing NF-κB reporter
• 1) tested compounds were added into DMSO to give parent liquor (10 mM); • 2) reference compound Birinapant (32 μL, 10 mM) was added into DMSO (128 μL) to give a solution (2 mM); • 3) 0.5 μL reference compound Birinapant (2 mM) and tested compounds (10 mM) were taken by Echo and added into Greiner 96 well black cell culture plate respectively. The initial concentration of the reference compound and tested compound was 10 μM and 50 μM, respectively. Then, the reference compound and tested compounds were diluted at 9 points in series by 5-fold; and every plate was repeated for 3 times. • 4) the reference compound WXFL2012A001 (Birinapant) (final concentration: 10 μM) as HPE and DMSO (final concentration: 0.5%) as ZPE.
• 5) purpose of the three repeated plates: the first plate was used for testing compounds' activity;
the second plate was used for testing cytotoxicity of the compounds; the third plate was used for solution replacement of the first and second plates: mixing inducer TNF-α and medium containing 0.1% FBS, and then being added to the third plate and the resultant mixture was transferred to the first plate where supernatants had been removed.
• 1) removing medium in NF-iBLuciferase Reporter Hela cell culture flask and washing cell once with PBS (10 mL) • 2) adding 0.25% pancreatin (3 mL) to T150 cell culture flask, and placinginto cell incubator (37° C., 5%CO2) and dissociating cell for 3 min, and then medium (10 mL) was added to end dissociation and blowing cells with electric pipette until cells were dispersed into single cell. • 3) Calculating cell density with cell counter Countstar • 4) Adjusting NF-κB Luciferase Reporter Hela density with medium to 2.0×10^5 cells/mL • 5) Adding cells to two Greiner 96 well black cell culture plates containing compounds, (100 μL per well (2.0×10^4 cells/well)), one plate was used for testing compounds' activity, another was used for testing cytotoxicity of the compounds. • 6) Placing cell culture plates into cell incubator (37° C., 5%CO2) and incubatingfor 24 h Second Day TNF-α Inducing • 1) TNF-α (100 μg/mL) was diluted into 20 ng/mL with 0.1% FBS medium and transferredto the third plate with 100 μL per well • 2) Removing medium of the first 96 well black cell culture plate (compound activity testing plate) after 24 h, replacing with fresh medium containing the compound and 20 ng/mL TNF-α in the third plate • 3) Placing cell culture plate into cell incubator (37° C., 5% CO2) and incubatingfor 6 h • 4) after 6 h, compound's activity in the first plate was tested according to Bright-Glo (Promega) manual method, luciferase signal in each well was tested by Envision plate reader • 5) compound's cytotoxicity in the second plate was tested according to ATPlite 1Step (Perkin Elmer) manual method, luciferase signal in each well was tested by Envision plate reader • 6) analyzing with software to obtain EC50 of compound.

[2] = target: cIAP1-BIR3 Protein (Homo sapiens (Human), UniProt Q13490); assay: Fluorescence polarization affinity of compounds to cIAP1-BIR3; type: binding; settings: cIAP1-BIR3 20 nM; 5 nM ARPFAQ-K(5-FAM)-NH2 probe; FP; pH 7.5; read-out: affinity to target protein in vitro, cIAP1-BIR3 Protein (IC50)
Sequence of cIAP1-BIR3 Protein (Q13490 253-363): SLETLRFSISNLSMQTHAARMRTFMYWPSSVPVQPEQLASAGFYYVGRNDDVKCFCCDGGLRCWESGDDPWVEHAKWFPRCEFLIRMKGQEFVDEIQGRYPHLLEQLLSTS
Description: (§1) Biological Assay 1: affinity of compounds to cIAP1-BIR3, cIAP2-BIR3, XIAP-BIR3 • 1) Affinity of compounds listed in table to cIAP1-BIR3, Ciap2-BIR3, XIAP-BIR3 was tested referring to Nikolovska-Colesks, Z. et.Al. (Analytical Biochemistry,2004,232:261-273) to obtain IC50 value. Generally speaking, in 10-dose IC50 mode, IAP antagonists with different concentrations were diluted in series by 3-fold and fluorescence labelled ARPFAQ-K (5-FAM)-NH2 peptide was used as probe to test compounds binding to protein BIR3 domain. • 2) Test condition: cIAP1-BIR3: 20 nM; cIAP2-BIR3: 60 nM; XIAP-BIR3: 30 nM; 5 nM probe in 100 mM tripotassium phosphate, pH 7.5, 0.1 mg/mL BSA, 0.005% Triton X100 and 0.5% DMSO. • 3) Test procedure: compounds were added into protein with different concentrations by using ECHO (LabCyte), and then the mixture was preincubated for 15 min. The probe was added and the final concentration was 5 nM. After incubating for 60 min, FP was tested and mP was calculated. Experiment results were list in table 1.

[3] = target: cIAP2-BIR3 Protein (Homo sapiens (Human), UniProt Q13489); assay: Fluorescence polarization affinity of compounds to cIAP2-BIR3; type: binding; settings: cIAP2-BIR3 60 nM; 5 nM ARPFAQ-K(5-FAM)-NH2 probe; FP; pH 7.5; read-out: affinity to target protein in vitro, cIAP2-BIR3 Protein (IC50)
Sequence of cIAP2-BIR3 Protein (Q13489 238-349): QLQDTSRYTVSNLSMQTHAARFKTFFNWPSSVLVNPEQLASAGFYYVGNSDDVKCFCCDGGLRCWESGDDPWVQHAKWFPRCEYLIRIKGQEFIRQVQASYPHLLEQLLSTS
Description: as §1

[4] = target: XIAP-BIR3 Protein (Homo sapiens (Human), UniProt P98170); assay: Fluorescence polarization affinity of compounds to XIAP-BIR3; type: binding; settings: XIAP-BIR3 30 nM; 5 nM ARPFAQ-K(5-FAM)-NH2 probe; FP; pH 7.5; read-out: affinity to target protein in vitro, XIAP-BIR3 Protein (IC50)
Sequence of XIAP-BIR3 Protein (P98170 241-356): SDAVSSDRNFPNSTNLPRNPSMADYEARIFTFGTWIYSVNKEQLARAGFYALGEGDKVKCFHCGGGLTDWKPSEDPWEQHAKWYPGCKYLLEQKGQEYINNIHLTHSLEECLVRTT
Description: as §1

[5] = Table 4, 20 ng/mL TNF-α, exact values with control Birinapant
[6] = Table 3, 20 ng/mL TNF-α, values given as ranges

SMILES: CC[C@H](NC(=O)[C@H](C)NC)C(=O)N1C[C@@H](O)C[C@H]1Cc1c(-c2[nH]c3cc(F)ccc3c2C[C@@H]2C[C@H](O)CN2C(=O)[C@H](CC)NC(=O)[C@H](C)NC)[nH]c2cc(F)ccc12 [Birinapant, reference compound]
- EC50 [1, 5]: 7.05 nM

SMILES: CN[C@@H](C)C(=O)N[C@H](C(=O)N1CCC[C@H]1Cc1c(-c2nc3cc(F)ccc3n2C[C@@H]2CCCN2C(=O)[C@@H](NC(=O)[C@H](C)NC)C(C)C)[nH]c2cc(F)ccc12)C(C)C [Embodiment 1]
- IC50 [2]: < 10 nM
- IC50 [3]: 10 to 100 nM
- IC50 [4]: 10 to 100 nM
- EC50 [1, 6]: < 10 nM
- EC50 [1, 5]: 7.11 nM

SMILES: CC[C@H](NC(=O)[C@H](C)NC)C(=O)N1CCC[C@H]1Cc1c(-c2nc3cc(F)ccc3n2C[C@@H]2CCCN2C(=O)[C@@H](NC(=O)[C@H](C)NC)C(C)(C)C)[nH]c2cc(F)ccc12 [Embodiment 3]
- EC50 [1, 6]: < 10 nM

SMILES: CC[C@H](NC(=O)[C@H](C)NC)C(=O)N1CCC[C@H]1Cc1c(-c2nc3cc(F)ccc3n2C[C@@H]2CCCN2C(=O)[C@@H](NC(=O)[C@H](C)NC)C2CCCCC2)[nH]c2cc(F)ccc12 [Embodiment 4]
- EC50 [1, 6]: 10 to 100 nM

SMILES: CC[C@H](NC(=O)[C@H](C)NC)C(=O)N1CCC[C@H]1Cn1c(-c2[nH]c3cc(F)ccc3c2C[C@@H]2CCCN2C(=O)[C@@H](NC(=O)[C@H](C)NC)C(C)(C)C)nc2cc(F)ccc21 [Embodiment 5]
- EC50 [1, 6]: 10 to 100 nM

SMILES: CC[C@H](NC(=O)[C@H](C)NC)C(=O)N1CCC[C@H]1Cn1c(-c2[nH]c3cc(F)ccc3c2C[C@@H]2CCCN2C(=O)[C@@H](NC(=O)[C@H](C)NC)C2CCCCC2)nc2cc(F)ccc21 [Embodiment 6]
- EC50 [1, 6]: 10 to 100 nM

SMILES: CCC[C@H](NC(=O)[C@H](C)NC)C(=O)N1CCC[C@H]1Cc1c(-c2nc3cc(F)ccc3n2C[C@@H]2CCCN2C(=O)[C@@H](NC(=O)[C@H](C)NC)C(C)C)[nH]c2cc(F)ccc12 [Embodiment 7]
- EC50 [1, 6]: 10 to 100 nM

SMILES: CCC[C@H](NC(=O)[C@H](C)NC)C(=O)N1CCC[C@H]1Cc1c(-c2nc3cc(F)ccc3n2C[C@@H]2CCCN2C(=O)[C@@H](NC(=O)[C@H](C)NC)C(C)(C)C)[nH]c2cc(F)ccc12 [Embodiment 8]
- EC50 [1, 6]: < 10 nM

SMILES: CCC[C@H](NC(=O)[C@H](C)NC)C(=O)N1CCC[C@H]1Cc1c(-c2nc3cc(F)ccc3n2C[C@@H]2CCCN2C(=O)[C@@H](NC(=O)[C@H](C)NC)C2CCCCC2)[nH]c2cc(F)ccc12 [Embodiment 9]
- EC50 [1, 6]: 10 to 100 nM

SMILES: CCC[C@H](NC(=O)[C@H](C)NC)C(=O)N1CCC[C@H]1Cn1c(-c2[nH]c3cc(F)ccc3c2C[C@@H]2CCCN2C(=O)[C@@H](NC(=O)[C@H](C)NC)C(C)C)nc2cc(F)ccc21 [Embodiment 10]
- EC50 [1, 6]: 10 to 100 nM

SMILES: CCC[C@H](NC(=O)[C@H](C)NC)C(=O)N1CCC[C@H]1Cn1c(-c2[nH]c3cc(F)ccc3c2C[C@@H]2CCCN2C(=O)[C@@H](NC(=O)[C@H](C)NC)C(C)(C)C)nc2cc(F)ccc21 [Embodiment 11]
- EC50 [1, 6]: 10 to 100 nM

SMILES: CCC[C@H](NC(=O)[C@H](C)NC)C(=O)N1CCC[C@H]1Cn1c(-c2[nH]c3cc(F)ccc3c2C[C@@H]2CCCN2C(=O)[C@@H](NC(=O)[C@H](C)NC)C2CCCCC2)nc2cc(F)ccc21 [Embodiment 12]
- EC50 [1, 6]: 10 to 100 nM

SMILES: CCC[C@H](NC(=O)[C@H](C)NC)C(=O)N1C[C@@H](F)C[C@H]1Cc1c(-c2nc3cc(F)ccc3n2C[C@@H]2C[C@H](F)CN2C(=O)[C@H](CCC)NC(=O)[C@H](C)NC)[nH]c2cc(F)ccc12 [Embodiment 15]
- EC50 [1, 6]: 10 to 100 nM

SMILES: CCC[C@H](NC(=O)[C@H](C)NC)C(=O)N1C[C@@H](F)C[C@H]1Cc1c(-c2nc3cc(F)ccc3n2C[C@@H]2C[C@H](F)CN2C(=O)[C@@H](NC(=O)[C@H](C)NC)C(C)(C)C)[nH]c2cc(F)ccc12 [Embodiment 33]
- EC50 [1, 6]: < 10 nM

SMILES: CCC[C@H](NC(=O)[C@H](C)NC)C(=O)N1C[C@@H](F)C[C@H]1Cc1c(-c2nc3cc(F)ccc3n2C[C@@H]2C[C@H](F)CN2C(=O)[C@@H](NC(=O)[C@H](C)NC)C2CCCCC2)[nH]c2cc(F)ccc12 [Embodiment 34]
- EC50 [1, 6]: < 10 nM

SMILES: CCC[C@H](NC(=O)[C@H](C)NC)C(=O)N1C[C@@H](F)C[C@H]1Cn1c(-c2[nH]c3cc(F)ccc3c2C[C@@H]2C[C@H](F)CN2C(=O)[C@@H](NC(=O)[C@H](C)NC)C(C)(C)C)nc2cc(F)ccc21 [Embodiment 35]
- EC50 [1, 6]: < 10 nM

SMILES: CC[C@H](NC(=O)[C@H](C)NC)C(=O)N1CCC[C@H]1Cc1c(-c2nc3cc(F)ccc3n2C[C@@H]2C[C@H](F)CN2C(=O)[C@@H](NC(=O)[C@H](C)NC)C(C)C)[nH]c2cc(F)ccc12 [Embodiment 37]
- EC50 [1, 6]: 10 to 100 nM

SMILES: CC[C@H](NC(=O)[C@H](C)NC)C(=O)N1CCC[C@H]1Cn1c(-c2[nH]c3cc(F)ccc3c2C[C@@H]2C[C@H](F)CN2C(=O)[C@@H](NC(=O)[C@H](C)NC)C(C)C)nc2cc(F)ccc21 [Embodiment 41]
- EC50 [1, 6]: 10 to 100 nM

SMILES: CN[C@@H](C)C(=O)N[C@H](C(=O)N1CC(F)(F)C[C@H]1Cc1c(-c2nc3cc(F)ccc3n2C[C@@H]2CC(F)(F)CN2C(=O)[C@@H](NC(=O)[C@H](C)NC)C(C)C)[nH]c2cc(F)ccc12)C(C)C [Embodiment 45]
- EC50 [1, 6]: 10 to 100 nM

SMILES: CC[C@H](NC(=O)[C@H](C)NC)C(=O)N1CC(F)(F)C[C@H]1Cn1c(-c2[nH]c3cc(F)ccc3c2C[C@@H]2CC(F)(F)CN2C(=O)[C@@H](NC(=O)[C@H](C)NC)C(C)C)nc2cc(F)ccc21 [Embodiment 47]
- EC50 [1, 6]: 10 to 100 nM

SMILES: CC[C@H](NC(=O)[C@H](C)NC)C(=O)N1C[C@@H](F)C[C@H]1Cc1c(-c2nc3cc(F)ccc3n2C[C@@H]2[C@@H](C)[C@@H](C)CN2C(=O)[C@H](CC)NC(=O)[C@H](C)NC)[nH]c2cc(F)ccc12 [Embodiment 48]
- EC50 [1, 6]: 10 to 100 nM

SMILES: CN[C@@H](C)C(=O)N[C@H](C(=O)N1C[C@@H](F)C[C@H]1Cc1c(-c2nc3cc(F)ccc3n2C[C@@H]2[C@@H](C)[C@@H](C)CN2C(=O)[C@@H](NC(=O)[C@H](C)NC)C(C)C)[nH]c2cc(F)ccc12)C(C)C [Embodiment 49]
- EC50 [1, 6]: < 10 nM

SMILES: CC[C@H](NC(=O)[C@H](C)NC)C(=O)N1C[C@@H](F)C[C@H]1Cc1c(-c2nc3cc(F)ccc3n2C[C@@H]2C[C@H](F)CN2C(=O)[C@@H](NC(=O)[C@H](C)NC)C(C)C)[nH]c2ccccc12 [Embodiment 50]
- EC50 [1, 6]: 10 to 100 nM

SMILES: CC[C@H](NC(=O)[C@H](C)NC)C(=O)N1C[C@@H](F)C[C@H]1Cc1c(-c2nc3cc(F)ccc3n2C[C@@H]2C[C@H](F)CN2C(=O)[C@@H](NC(=O)[C@H](C)NC)C(C)C)[nH]c2cc(Cl)ccc12 [Embodiment 51]
- EC50 [1, 6]: < 10 nM
